We go through 3 molecules from patent US6861554B2, “Creatine salt having enhanced nutritional and therapeutic efficacy and compositions containing same” (Biosalts s.r.l., priority 2001, dated 2005).

One series relates to muscle cells. Put plainly: increase in glucose uptake by the muscle cells with respect to insulin. Type of series: cell-based.
Series [1] can be described thus: stability and hygroscopicity of the salt. Type of series: physicochemical.

In the case of `CN(CC(=O)O)C(=N)N.O` [Creatine monohydrate, creatine monohydrate], the “Glucose uptake (percentage of increase in the glucose uptake by the muscle cells with respect to insulin)” value in the series with muscle cells (2.5 grams of substance) is recorded as 1-2%. As for `NCCS(=O)(=O)O` [Taurine, 2-aminoethanesulphonic acid], the “Glucose uptake (percentage of increase in the glucose uptake by the muscle cells with respect to insulin)” value with muscle cells (2.5 grams of substance) is 15-18%. On to Creatine Taurinate, for which the “Glucose uptake (percentage of increase in the glucose uptake by the muscle cells with respect to insulin)” value in the series on muscle cells (5.0 grams of substance) is reported as 25-28%. In addition, in series [1], the hygroscopicity entry is “non hygroscopic” and the stability result was “stable”.
